These results are taken from USRE50082E1, “(5,6-dihydro)pyrimido[4,5-e]indolizines” (NETHERLANDS TRANSLATIONAL RESEARCH CENTER B.V., priority 2014, dated 2024).

The subject of one assay is MOLT-4 cancer cell line. As to the kind of experiment: Cell proliferation assay, MOLT-4 cancer cell line (ATPlite).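 Also: luminescence read-out, percent growth versus compound-free DMSO wells as maximum growth, start-of-incubation signal separating growth from cell death, IC50 from logistic curve fit.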 It counts as cell-based. The following applies: Homo sapiens, MOLT-4; 72 hours incubation, ATPlite 1Step; read-out: IC50 MOLT-4 cell proliferation. Background: In ATP-based viability assays light output follows the ATP content of the culture.
The next assay addresses T1, Aurora A (Homo sapiens, UniProt O14965).
T1 construct: full-length Aurora A enzyme (Carna Biosciences, cat. no. 05-101); purchased Carna Biosciences 05-101
T1 sequence (O14965 1-403): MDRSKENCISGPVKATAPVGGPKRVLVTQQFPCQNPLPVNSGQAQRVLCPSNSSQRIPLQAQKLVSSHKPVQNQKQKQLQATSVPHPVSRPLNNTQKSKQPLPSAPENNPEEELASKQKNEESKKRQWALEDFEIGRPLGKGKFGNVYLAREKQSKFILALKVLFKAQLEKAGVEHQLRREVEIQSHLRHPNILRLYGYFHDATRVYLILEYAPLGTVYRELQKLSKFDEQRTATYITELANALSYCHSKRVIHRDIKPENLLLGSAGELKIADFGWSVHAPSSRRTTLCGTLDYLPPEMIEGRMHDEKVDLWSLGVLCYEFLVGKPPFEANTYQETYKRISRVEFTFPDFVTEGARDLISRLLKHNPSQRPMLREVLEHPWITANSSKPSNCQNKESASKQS
As to the kind of experiment: Biochemical Aurora A kinase assay (LANCE Ultra TR-FRET).

The target in a further assay is T2, Aurora C (Homo sapiens, UniProt Q9UQB9).
T2 construct: full-length Aurora C enzyme (Carna Biosciences, cat. no. 05-103); purchased Carna Biosciences 05-103
T2 sequence (Q9UQB9 1-309): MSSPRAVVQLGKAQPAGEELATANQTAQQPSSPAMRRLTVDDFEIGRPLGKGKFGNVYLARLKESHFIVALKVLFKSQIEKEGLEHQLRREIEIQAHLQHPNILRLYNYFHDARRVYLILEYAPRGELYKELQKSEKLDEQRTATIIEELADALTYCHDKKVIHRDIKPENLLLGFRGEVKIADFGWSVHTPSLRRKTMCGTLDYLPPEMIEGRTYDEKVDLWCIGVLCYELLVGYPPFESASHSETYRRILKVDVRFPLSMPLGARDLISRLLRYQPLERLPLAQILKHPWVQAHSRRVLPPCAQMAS
As to the kind of experiment: Biochemical Aurora C kinase assay (LANCE Ultra TR-FRET). Background: TR-FRET usually uses a lanthanide donor and a delayed reading to cut background.

For assay [1], the target named is Polo-like kinase 1 (PLK1) (Homo sapiens, UniProt P53350). As to the kind of experiment: Biochemical Polo-like kinase 1 kinase assay (LANCE Ultra TR-FRET).
Sequence of Polo-like kinase 1 (PLK1) (P53350 whole entry): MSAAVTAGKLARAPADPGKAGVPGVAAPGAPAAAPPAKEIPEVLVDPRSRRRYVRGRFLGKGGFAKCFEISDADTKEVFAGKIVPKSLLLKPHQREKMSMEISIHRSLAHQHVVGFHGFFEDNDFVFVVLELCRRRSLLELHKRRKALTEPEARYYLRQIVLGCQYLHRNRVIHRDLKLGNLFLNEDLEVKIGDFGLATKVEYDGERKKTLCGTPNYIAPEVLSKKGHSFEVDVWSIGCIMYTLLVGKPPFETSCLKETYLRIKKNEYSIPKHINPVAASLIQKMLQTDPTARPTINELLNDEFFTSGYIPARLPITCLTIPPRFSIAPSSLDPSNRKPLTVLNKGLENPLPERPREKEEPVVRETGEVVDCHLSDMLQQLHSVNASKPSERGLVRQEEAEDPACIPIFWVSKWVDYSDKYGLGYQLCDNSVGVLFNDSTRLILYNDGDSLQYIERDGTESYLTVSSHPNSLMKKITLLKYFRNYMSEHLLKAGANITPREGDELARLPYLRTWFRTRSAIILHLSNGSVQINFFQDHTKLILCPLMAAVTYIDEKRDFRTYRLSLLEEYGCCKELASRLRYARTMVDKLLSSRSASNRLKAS
Procedure: To determine the inhibitory activity of the compounds on Polo-like kinase 1 (PLK1), the LANCE® Ultra TR-FRET assay (Perkin Elmer) was used. […] After 4 hours, the reaction was stopped by the addition of 5 μl 100 mM EDTA. […] Time-resolved fluorescence was measured on an Envision multilabel reader (Perkin Elmer, Waltham, Mass. USA). IC50 were calculated using XLfit™5 software (ID Business Solutions, Ltd., Surrey, U.K.).

Procedure for Aurora A: To determine the inhibitory activity of the compounds on Aurora A, the LANCE® Ultra TR-FRET assay (Perkin Elmer) was used. […] After 2 hours, the reaction was stopped by the addition of 5 μl 100 mM EDTA. […] Time-resolved fluorescence was measured on an Envision multilabel reader (Perkin Elmer, Waltham, Mass., USA). IC50 were calculated using XLfit™5 software (ID Business Solutions, Ltd., Surrey, U.K.).
Procedure for Aurora C: To determine the inhibitory activity of the compounds on Aurora C, the LANCE® Ultra TR-FRET assay (Perkin Elmer) was used. […] After pre-incubation of 1 hour in the dark at room temperature, ULightTM-labeled PLK([MUT]) substrate peptide (Perkin Elmer, cat. no. TRF-0110) and ATP were added, to start the reaction. […] After 3 hours, the reaction was stopped by the addition of 5 μl 100 mM EDTA. […] Time-resolved fluorescence was measured on an Envision multilabel reader (Perkin Elmer, Waltham, Mass., USA). IC50 were calculated using XLfitTM5 software (ID Business Solutions, Ltd., Surrey, U.K.).
Procedure for MOLT-4 cancer cell line: 5 μL of compound solution was added and the plates were incubated for an additional 72 hours after which 25 μL of ATPlite 1Step™ (PerkinElmer, Groningen, The Netherlands) solution was added to each well. Luminescence was recorded on an Envision multimode reader. The cell signal at the start of incubation was recorded separately in order to distinguish between cell population growth and cell death. In addition, maximum growth was determined by incubation of a duplicate without compound in the presence of 0.4% DMSO. Percentage growth was used as the main y-axis signal. IC50s were fitted by non-linear regression using IDBS XLfit™5 using a 4-parameter logistic curve, yielding a maximum signal, minimum signal, hill-parameter and IC50.

In the case of `CCc1n[nH]c(CC)c1NC(=O)c1ccn2c1CCc1cnc(Nc3ccc(N4CCN(C)CC4)cc3OC(F)F)nc1-2` [Example 33, N-(3,5-diethyl-1H-pyrazol-4-yl)-2-[2-(difluoromethoxy)-4-(4-methylpiperazin-1-yl)anilino]-5,6-dihydropyrimido[4,5-e]indolizine-7-carboxamide], the IC50 with MOLT-4 cancer cell line was less than 50 nM; against Aurora A (full-length Aurora A, 2 μM ATP), not below 100 nM; against Aurora C (full-length Aurora C, 5 μM ATP), not below 100 nM; in assay [1] it was not below 250 nM. Moreover, the “AurA Selectivity” value at Aurora A (IC50 AurA/IC50 TTK (biochemical assays)) was more than 500. Further, the “AurC Selectivity” value on Aurora C (IC50 AurC/IC50 TTK (biochemical assays)) was more than 500. The “PLK1 Selectivity” value in assay [1] (IC50 PLK1/IC50 TTK (biochemical assays)) is recorded as more than 500.

For `COc1cc(C(=O)N[C@@H]2CCNC[C@@H]2F)ccc1Nc1ncc2c(n1)-n1ccc(C(=O)Nc3c(C)cccc3C)c1CC2` [Example 118, N-(2,6-dimethylphenyl)-2-[4-[[(3S,4R)-3-fluoro-4-piperidyl]carbamoyl]-2-methoxy-anilino]-5,6-dihydropyrimido[4,5-e]indolizine-7-carboxamide], in the assay with MOLT-4 cancer cell line, the IC50 was less than 50 nM.

With `COc1cc(C(=O)NC(C)C)ccc1Nc1ncc2c(n1)-n1ccc(C(=O)Nc3c(C)cccc3C)c1CC2` [Example 120, N-(2,6-dimethylphenyl)-2-[4-(isopropylcarbamoyl)-2-methoxy-anilino]-5,6-dihydropyrimido[4,5-e]indolizine-7-carboxamide], the IC50 with MOLT-4 cancer cell line is less than 50 nM.

In the case of `COc1cc(C(=O)N2CCOCC2)ccc1Nc1ncc2c(n1)-n1ccc(C(=O)Nc3c(C)cccc3C)c1CC2` [Example 122, N-(2,6-dimethylphenyl)-2-[2-methoxy-4-(morpholine-4-carbonyl)anilino]-5,6-dihydropyrimido[4,5-e]indolizine-7-carboxamide], in the assay on MOLT-4 cancer cell line, the IC50 was less than 50 nM.

For the molecule `CCN1CCCN(C(=O)c2ccc(Nc3ncc4c(n3)-n3ccc(C(=O)Nc5c(C)cccc5C)c3CC4)c(OC)c2)CC1` [Example 124, N-(2,6-dimethylphenyl)-2-[4-(4-ethyl-1,4-diazepane-1-carbonyl)-2-methoxy-anilino]-5,6-dihydropyrimido[4,5-e]indolizine-7-carboxamide], in the assay with MOLT-4 cancer cell line, the IC50 was less than 50 nM.

On to `COc1cc(C(=O)NC2CC2)ccc1Nc1ncc2c(n1)-n1ccc(C(=O)Nc3c(C)cccc3C)c1CC2` [Example 126, 2-[4-(cyclopropylcarbamoyl)-2-methoxy-anilino]-N-(2,6-dimethylphenyl)-5,6-dihydropyrimido[4,5-e]indolizine-7-carboxamide], for which the IC50 with MOLT-4 cancer cell line is less than 50 nM.

As to `COCCNC(=O)c1ccc(Nc2ncc3c(n2)-n2ccc(C(=O)Nc4c(C)cccc4C)c2CC3)c(OC)c1` [Example 127, N-(2,6-dimethylphenyl)-2-[2-methoxy-4-(2-methoxyethylcarbamoyl)anilino]-5,6-dihydropyrimido[4,5-e]indolizine-7-carboxamide], the IC50 in the assay on MOLT-4 cancer cell line is less than 50 nM.

Turning to `COc1cc(C(=O)NCCN2CCCCC2)ccc1Nc1ncc2c(n1)-n1ccc(C(=O)Nc3c(C)cccc3C)c1CC2` [Example 128, N-(2,6-dimethylphenyl)-2-[2-methoxy-4-[2-(1-piperidyl)ethylcarbamoyl]anilino]-5,6-dihydropyrimido[4,5-e]indolizine-7-carboxamide], the IC50 in the assay with MOLT-4 cancer cell line was in the range of 50 to 150 nM.

Regarding `COc1cc(C(=O)N2CCC(C)(C#N)CC2)ccc1Nc1ncc2c(n1)-n1ccc(C(=O)Nc3c(C)cccc3C)c1CC2` [Example 129, 2-[4-(4-Cyano-4-methyl-piperidine-1-carbonyl)-2-methoxy-anilino]-N-(2,6-dimethylphenyl)-5,6-dihydropyrimido[4,5-e]indolizine-7-carboxamide], the IC50 in the assay with MOLT-4 cancer cell line was less than 50 nM.

On to `COc1cc(N2CCN(C(=O)C3(C)CNC3)CC2)ccc1Nc1ncc2c(n1)-n1ccc(C(=O)Nc3c(C)cccc3C)c1CC2` [Example 130, N-(2,6-dimethylphenyl)-2-[2-methoxy-4-[4-(3-methylazetidine-3-carbonyl)piperazin-1-yl]anilino]-5,6-dihydropyrimido[4,5-e]indolizine-7-carboxamide], for which the IC50 with MOLT-4 cancer cell line is less than 50 nM.

`COCCn1nc(C)c(NC(=O)c2ccn3c2CCc2cnc(Nc4ccc(N5CCN(C(C)=O)CC5)cc4OC)nc2-3)c1C` [Example 131, 2-[4-(4-Acetylpiperazin-1-yl)-2-methoxy-anilino]-N-[1-(2-methoxyethyl)-3,5-dimethyl-pyrazol-4-yl]-5,6-dihydropyrimido[4,5-e]indolizine-7-carboxamide]: the IC50 in the assay on MOLT-4 cancer cell line was in the range of 50 to 150 nM.

With `COCCn1nc(C)c(NC(=O)c2ccn3c2CCc2cnc(Nc4ccc(N5CCN(C(=O)C6CC(F)C6)CC5)cc4OC)nc2-3)c1C` (stereo not drawn) [Example 132, 2-[4-[4-(3-Fluorocyclobutanecarbonyl)piperazin-1-yl]-2-methoxy-anilino]-N-[1-(2-methoxyethyl)-3,5-dimethyl-pyrazol-4-yl]-5,6-dihydropyrimido[4,5-e]indolizine-7-carboxamide], the IC50 with MOLT-4 cancer cell line lay in the range of 50 to 150 nM.

Consider `COc1cc(N2CCN(C)CC2)ccc1Nc1ncc2c(n1)-n1ccc(C(=O)Nc3c(C)cccc3C#N)c1CC2` [Example 133, N-(2-cyano-6-methyl-phenyl)-2-[2-methoxy-4-(4-methylpiperazin-1-yl)anilino]-5,6-dihydropyrimido[4,5-e]indolizine-7-carboxamide], for which, in the assay on MOLT-4 cancer cell line, the IC50 is less than 50 nM.

Consider `CCc1cccc(CC)c1NC(=O)c1ccn2c1CCc1cnc(Nc3ccc(N(C)CCCN(C)C)cc3OC)nc1-2` [Example 134, N-(2,6-diethylphenyl)-2-[4-[3-(dimethylamino)propyl-methyl-amino]-2-methoxy-anilino]-5,6-dihydropyrimido[4,5-e]indolizine-7-carboxamide], for which, in the assay on MOLT-4 cancer cell line, the IC50 was less than 50 nM.

In the case of `COCCOCCOCCn1nc(C)c(NC(=O)c2ccn3c2CCc2cnc(Nc4ccc(N(C)CCCN(C)C)cc4OC)nc2-3)c1C` [Example 135, 2-[4-[3-(Dimethylamino)propyl-methyl-amino]-2-methoxy-anilino]-N-[1-[2-[2-(-2-methoxyethoxy)ethoxy]ethyl]-3,5-dimethyl-pyrazol-4-yl]-5,6-dihydropyrimido[4,5-e]indolizine-7-carboxamide], the IC50 in the assay on MOLT-4 cancer cell line was less than 50 nM.

As to `CCc1cccc(CC)c1NC(=O)c1ccn2c1CCc1cnc(Nc3ccc(OCCOC)cc3OC)nc1-2` [Example 136, N-(2,6-diethylphenyl)-2-[2-methoxy-4-(2-methoxyethoxy)anilino]-5,6-dihydropyrimido[4,5-e]indolizine-7-carboxamide], the IC50 with MOLT-4 cancer cell line fell in the range of 50 to 150 nM.

As to `COCCOCCOCCn1nc(C)c(NC(=O)c2ccn3c2CCc2cnc(Nc4ccc(OCCOC)cc4OC)nc2-3)c1C` [Example 137, N-[1-[2-[2-(2-methoxyethoxy)ethoxy]ethyl]-3,5-dimethyl-pyrazol-4-yl]-2-[2-methoxy-4-(2-methoxyethoxy)anilino]-5,6-dihydropyrimido[4,5-e]indolizine-7-carboxamide], the IC50 in the assay with MOLT-4 cancer cell line is less than 50 nM.

Take `COc1cc(N2CCN(C)CC2)ccc1Nc1ncc2c(n1)-n1ccc(C(=O)Nc3c(C)nn(CC4CCO4)c3C)c1CC2` (stereo not drawn) [Example 140, N-[3,5-dimethyl-1-(oxetan-2-ylmethyl)pyrazol-4-yl]-2-[2-methoxy-4-(4-methylpiperazin-1-yl)anilino]-5,6-dihydropyrimido[4,5-e]indolizine-7-carboxamide]: in the assay with MOLT-4 cancer cell line, the IC50 is 50 to 150 nM.

Take `CCc1nn(C2COC2)c(CC)c1NC(=O)c1ccn2c1CCc1cnc(Nc3ccc(N4CCN(C)CC4)cc3OC)nc1-2` [Example 142, N-[3,5-diethyl-1-(oxetan-3-yl)pyrazol-4-yl]-2-[2-methoxy-4-(4-methylpiperazin-1-yl)anilino]-5,6-dihydropyrimido[4,5-e]indolizine-7-carboxamide]: the IC50 in the assay with MOLT-4 cancer cell line lay in the range of 50 to 150 nM.

Turning to `Cc1cccc(C)c1NC(=O)c1ccn2c1CCc1cnc(Nc3ccc(N4CCN(C)CC4)cc3OC(F)F)nc1-2` [Example 144, N-(2,6-dimethyl-phenyl)-2-[2-(difluoromethoxy)-4-(4-methylpiperazin-1-yl)anilino]-5,6-dihydropyrimido[4,5-e]indolizine-7-carboxamide], the IC50 in the assay with MOLT-4 cancer cell line is less than 50 nM.

For the molecule `COc1cc(N2CCN(C(=O)NC(C)C)CC2)ccc1Nc1ncc2c(n1)-n1ccc(C(=O)Nc3c(C)cccc3C)c1CC2` [Example 145, N-(2,6-dimethylphenyl)-2-[4-[4-(isopropylcarbamoyl)piperazin-1-yl]-2-methoxy-anilino]-5,6-dihydropyrimido[4,5-e]indolizine-7-carboxamide], in the assay with MOLT-4 cancer cell line, the IC50 is less than 50 nM.
